“Also recorded” adds a separate entry of the source.
What was measured:
carp adipocytes = experiment: Determination of insulin activity in vitro: D-14C-glucose uptake by adipocytes; format: cell-based, carp Catla catla
Procedure: (b) Effect of AdpInsl and porcine insulin (PI) on glucose uptake by carp adipocytes. Adipocytes 1×10^5 cells/incubation, suspended in MEM containing 1% fetal calf serum and preincubated for 2 hours in the absence of insulin, after addition of D-^14C-glucose uptake was determined by the procedure described under the “Experimental procedures”. *p<0.05 when AdpInsl is compared with porcine insulin.
Determination of insulin activity in vitro—Freshly prepared adipocytes were suspended in the MEM and after 2 h 1.0 microCi of D-(^14C) glucose (final concentration 25 uM| containing was added to the adipocyte incubation. 25 ng/ml of AdpInsl or porcine insulin was added to the incubation and uptake of glucose was measured by following a previously described method (21). Initial rates of glucose uptake was determined from the incubation of adipocyte without insulin. The reaction was stopped at 3 min by washing the cells three times with ice cold MEM in the presence of 0.3 mM phloretin to correct the glucose uptake data from simple diffusion and nonspecific trapping of radioactivity.

[1] = tested on: streptozotocin induced diabetic rat; experiment: Biological activity of purified adipocyte insulin on streptozotocin induced diabetic rat; format: in vivo
Procedure: FIG. 5. Determination of biological activity of purified adipocyte insulin on streptozotocin induced diabetic rat. (a) The male Sprague Dawley rats of 100–150 g weight were selected for streptozotocin (STZ) treatment. […] (A) STZ untreated rats, only vehicle (0.9% saline) injected (n-6), (B) STZ rat, vehicle injected (n-6), (C) STZ rat injected with AdpInsl 10 μg/100 g body wt of rat (n-6). (D) STZ rat injected with 10 ug/100 g body wt of rat (n=6J porcine insulin. Each value is ±SEM of 6 observations. p<0.001 when C is compared with B,**p<0.05 when C is compared with D.
Insulin injection-Adipocyte IR-insulin (20 ug per 100 gm body weight) from incubation medium or 10 ug AdpInsl or porcine insulin was intraperitoneally injected into the male Sprague Dawley rats weighing between 100–150 g. After 6 hrs of injection blood was collected by retroorbital puncture using capillary tube, centrifuged to collect plasma and glucose content was determined by glucose-glucose oxidase method.

Substance: AdpInsl: Insulin purified from Catla catla carp adipocytes, A chain SEQ ID No. 1 (21 aa), B chain SEQ ID No. 2 (30 aa) (chain 1 GIVEQCCHKPCSIFELQNYCN; chain 2 PGAPQHLCGSHLVDALYLVCGPTGFFYNPK; listed as Catla catla)
- increase in glucose uptake by adipocyte (carp adipocytes; 25 ng/ml insulin, 1x10^5 cells/incubation, uptake stopped at 3 min): more than 2 fold
- stimulation of glucose uptake compared with porcine insulin (carp adipocytes; 25 ng/ml of each insulin, p<0.05): significantly higher; also recorded: more actively than porcine insulin
- hypoglycemic activity greater than porcine insulin ([1]; STZ rat, 10 ug/100 g body wt each insulin, p<0.05): 25%
- hyperglycemia ([1]; STZ rat, 10 ug/100 g body wt i.p., 6 hrs, p<0.001 compared with control): significantly reduced hyperglycemia
- hypoglycemic effect compared to porcine insulin ([1]; streptozotocin induced diabetic rat): significantly stronger hypoglycemic effect

Source: patent publication US7129211B2, “Adipocyte Insulin adpinsl with Insulin A and B chains and an effective method of treating type 2 diabetes in a subject using adipocyte insulin” (Council of Scientific and Industrial Research, priority 2002, dated 2006)
